From ChEMBL document CHEMBL1151547, “Enantioselective reduction of ethyl 3-methyl-2-oxobutanoate by an enzymatic system from callus of catharanthus roseus” (1994)

What was measured:
Catharanthus roseus [1] = experiment: Substrate specificity for NADPH-dependent dehydrogenase of catharanthus roseus membrane fraction; assay type: functional
Catharanthus roseus [2] = experiment: Substrate specificity for NADPH-dependent dehydrogenase of catharanthus roseus supernatant fraction; assay type: functional

| SMILES | Activity (Catharanthus roseus [1]) | Activity (Catharanthus roseus [2]) |
| --- | --- | --- |
| CCCCCCCCC(=O)C(F)(F)F | 0 | 0 |
| CCOC(=O)CC(C)=O | 0 | 0 |
| CCOC(=O)C(=O)CC | 65 | 68 |
| CCC(=O)C(=O)O | 0 | 0 |
| CCCCCC(=O)C(=O)OCC | 50 | 50 |
| CCOC(=O)C(=O)C(C)C | 100 | 100 |
| COC(=O)CC(=O)CCl | 0 | 12 |
| O=CC(O)CO (stereo not drawn) | 0 | 0 |
| O=C(c1ccccc1)C(F)(F)F | 6 | 65 |
| CCOC(=O)C(C)C(C)=O (stereo not drawn) | 0 | 29 |
| CC(C)CC(=O)C(=O)O [2-Oxoisohexanoate] | 0 | 0 |
| CC(C)C(=O)C(=O)O [2-Oxoisovalerate] | 0 | 0 |
| CC=O [ACETALDEHYDE] | 0 | 0 |
| CCOC(=O)C(C)=O [ETHYL PYRUVATE] | 59 | 70 |
